Reference: PubChem BioAssay (NCI)
Where “and” joins values, the source holds several entries; their conditions need not be identical. Equal entries are not always repeated.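 Test compounds were applied to cells in 96-well plates for 48 hours at 5 doses. The concentration for 50% growth inhibition is given as GI50. TGI: concentration producing complete growth inhibition.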

What was measured:
Assay in all cases: inhibition of tumour cell growth, NCI panel, 48 h
HCT-15 colon = system: HCT-15 colon
RXF 393 renal = system: RXF 393 renal
OVCAR-4 ovarian = system: OVCAR-4 ovarian
OVCAR-3 ovarian = system: OVCAR-3 ovarian
TK-10 renal = system: TK-10 renal
HCT-116 colon = system: HCT-116 colon
MALME-3M melanoma = system: MALME-3M melanoma
A549 NSCLC = system: A549 NSCLC
NCI/ADR-RES ovarian = system: NCI/ADR-RES ovarian
SNB-75 CNS = system: SNB-75 CNS

Compound	GI50 (HCT-15 colon)	TGI (HCT-15 colon)	GI50 (RXF 393 renal)	TGI (RXF 393 renal)	GI50 (OVCAR-4 ovarian)	TGI (OVCAR-4 ovarian)	GI50 (OVCAR-3 ovarian)	TGI (OVCAR-3 ovarian)	GI50 (TK-10 renal)	TGI (TK-10 renal)	GI50 (HCT-116 colon)	TGI (HCT-116 colon)	GI50 (MALME-3M melanoma)	TGI (MALME-3M melanoma)	GI50 (A549 NSCLC)	TGI (A549 NSCLC)	GI50 (NCI/ADR-RES ovarian)	TGI (NCI/ADR-RES ovarian)	GI50 (SNB-75 CNS)	TGI (SNB-75 CNS)
O=C(c1ccco1)c1nc2cc(C(F)(F)F)ccc2[n+]([O-])c1C(F)(F)F	56.5 µM	> 100 µM	61.4 µM	> 100 µM	17.9 µM	55.2 µM	30.5 µM	> 100 µM	50.8 µM	> 100 µM	38.5 µM	> 100 µM	33 µM	> 100 µM	> 100 µM	> 100 µM	32.4 µM	> 100 µM	23 µM	90.9 µM
O=C1CCSC(=S)N1c1ccc(Br)c(Cl)c1	–	40.2 µM	–	50.8 µM	–	50.3 µM	–	> 100 µM	–	78.2 µM	–	> 100 µM	–	49.8 µM	–	> 100 µM	–	> 100 µM	–	52.6 µM
O=C1/C(=C/c2ccc(Cl)c(Cl)c2)CNC/C1=C\c1ccc(Cl)c(Cl)c1	–	7.95 µM	–	29.5 µM	–	6.3 µM	–	7.54 µM	–	80 µM	–	5.66 µM	–	> 66.5 µM	–	67.1 µM	–	14.1 µM	–	33.9 µM
COc1ccc(-c2nnc(SCC(=O)Nc3ccc(C(=O)/C=C/c4cc(OC)c(OC)c(OC)c4)cc3)n2-c2ccccc2)cc1OC	2.01 µM	> 10 µM	2.13 µM	6.85 µM	> 10 µM	> 10 µM	3.18 µM	> 10 µM	> 10 µM	> 10 µM	0.433 µM	> 10 µM	> 10 µM	> 10 µM	4.33 µM	> 10 µM	> 10 µM	> 10 µM	> 10 µM	> 10 µM
CCCC(C)c1c(Cl)nc(Cl)nc1Cl (configuration not stated)	–	64.4 µM	–	22.4 µM	–	44.7 µM	–	21.3 µM	–	37.4 µM	–	3.66 µM	–	55.6 µM	–	29.4 µM	–	> 100 µM	–	27.5 µM
Nc1nccc2c1ccn2-c1cccc(NC(=O)c2ccc(N3CCOCC3)c(C(F)(F)F)c2)c1	0.443 µM	> 22.7 µM	0.213 µM	0.876 µM	1.77 µM	> 36.1 µM	0.318 µM	1.41 µM	1.56 µM	17.3 µM	0.677 µM	8.66 µM	0.634 µM	16.7 µM	0.922 µM	> 50 µM	0.361 µM	> 10.2 µM	0.307 µM	2.25 µM
O=C(Cn1c(C(=O)c2ccc(Cl)cc2)nc(-c2ccccc2)c1-c1ccccc1)c1ccc(Cl)cc1	> 100 µM	> 100 µM	> 100 µM	> 100 µM	> 100 µM	> 100 µM	> 100 µM	> 100 µM	> 100 µM	> 100 µM	> 100 µM	> 100 µM	> 100 µM	> 100 µM	> 100 µM	> 100 µM	> 100 µM	> 100 µM	> 100 µM	> 100 µM
CCCCCCCCNC(C)C(O)c1ccc(SC(C)C)cc1 (configuration not stated)	1.7 µM	3.29 µM	1.45 µM	2.81 µM	1.79 µM	3.25 µM	1.98 µM	3.46 µM	1.7 µM	3.13 µM	1.59 µM	3.11 µM	1.98 µM	3.81 µM	–	–	1.57 µM	3.17 µM	1.72 µM	3.26 µM
O=c1c2c(=NCCN3CCCC3)cc3c(=O)n(CCCN4CCOCC4)c(=O)c4ccc(c(O)n1CCCN1CCOCC1)c2c4-3	< 0.0201 µM	0.946 µM	0.104 µM	0.266 µM	0.13 µM	0.735 µM	0.0994 µM	1 µM	0.195 µM	1.62 µM	< 0.0174 µM	1.09 µM	0.346 µM	1.22 µM	0.0441 µM	3.44 µM	0.166 µM	12 µM	0.234 µM	1.46 µM
Cc1ccc(-c2cc(-c3ccc(C)cc3)nc(N3CCN(CCNc4ccnc5cc(Cl)ccc45)CC3)n2)cc1	3.42 µM	24.5 µM	1.45 µM	7.36 µM	0.912 µM	1.9 µM	1.29 µM	3.26 µM	2.29 µM	8.12 µM	1.66 µM	6.91 µM	1.07 µM	2.28 µM	3.62 µM	13.3 µM	2.53 µM	11.1 µM	0.949 µM	2.23 µM
Fc1cccc(Cl)c1Cn1c(-c2c(F)cccc2Cl)nc2ccccc21	16.4 µM	42.9 µM	19.7 µM	43.6 µM	23.6 µM	58.3 µM	17.4 µM	60.2 µM	15.6 µM	39.8 µM	34.4 µM	> 100 µM	8.29 µM	24.7 µM	11.6 µM	33.7 µM	18.7 µM	54.4 µM	22.1 µM	69.3 µM
O=C1/C(=C/c2ccc(Cl)cc2)CCC1CN1CCOCC1 (configuration not stated)	–	11.6 µM	–	11.2 µM	–	34.1 µM	–	15 µM	–	18.3 µM	–	17.8 µM	–	20.3 µM	–	55.9 µM	–	22.5 µM	–	37.9 µM
O=C1C(Br)=C(Br)C(=O)c2ccccc21	–	31.4 µM and 45.1 µM	16.2 µM and 5.85 µM	29.9 µM and 15.6 µM	–	31.4 µM and 33.3 µM	17.9 µM and 8.34 µM	32.4 µM and 27.7 µM	–	32.4 µM and 26.6 µM	–	31.8 µM and 28.1 µM	16.8 µM and 6.59 µM	31 µM and 16 µM	–	55.8 µM	–	66.8 µM	27.2 µM and 3.27 µM	79 µM and 11.1 µM
CC[C@H](C)[C@H](NC(=O)NC(C)(C)C)C(=O)N(C)[C@H](C[C@@H](OC(C)=O)c1nc(C(=O)N[C@@H](Cc2ccccc2)C[C@H](C)C(=O)OC)cs1)C(C)C	0.686 µM	6.95 µM	0.43 µM	> 20.3 µM	1.21 µM	> 25 µM	0.158 µM	0.964 µM	0.963 µM	> 25 µM	0.417 µM	> 25 µM	> 5.51 µM	> 25 µM	1.15 µM	> 25 µM	1.79 µM	24.9 µM	0.293 µM	> 25 µM
